{"source": "patent US20200278355A1", "about": "“CONJUGATED PROTEINS AND USES THEREOF” (THE SCRIPPS RESEARCH INSTITUTE, priority 2017, published 2020)", "key": {"[1]": {"system": "cysteine reactivity in H2122 and H1975 cells", "assay": "isoTOP-ABPP of cysteine reactivity changes after staurosporine or AZD9291 treatment", "type": "cell-based, human", "details": "staurosporine 1 μM, 4 h (H2122, H1975); AZD9291 1 μM, 24 h (H1975)", "description": "For analysis of cysteines that change following induction of apoptosis, H2122 and H1975 cells were treated with DMSO or staurosporine (1 μM, 4 h) in full RPMI. H1975 cells were treated with DMSO or AZD9291 (1 μM, 24 h) in full RPMI. Cells were lysed as described above. […] Samples were conjugated by copper-catalyzed azide-alkyne cycloaddition (CuAAC) to isotopically labeled, TEV-cleavable tags (TEV-tags). Heavy CuAAC reaction mixtures was added to the DMSO-treated or shGFP control samples and light CuAAC reaction mixture was added to compound-treated or shNRF2 samples. The CuAAC reaction mixture consisted of TEV tags (light or heavy, 10 μL of 5 mM stocks in DMSO, final concentration=100 μM), 1 mM tris(2-carboxyethyl)phosphine hydrochloride (TCEP; fresh 50× stock in water, final concentration=1 mM), ligand (17× stock in DMSO:t-butanol 1:4, final concentration=100 μM) and 1 mM CuSO4 (50× stock in water, final concentration=1 mM). The samples were allowed to react for 1 h at which point the samples were centrifuged (16,000×g, 5 min, 4° C.). The resulting pellets were sonicated in ice-cold methanol (500 μL) and the resuspended light- and heavy-labeled samples were then combined pairwise and centrifuged (16,000×g, 5 min, 4° C.). […] Samples were analyzed using an LTQVelos Orbitrap mass spectrometer (Thermo Scientific) coupled to an Agilent 1200-series quaternary pump. […]"}, "NR0B1-SNW1 interaction": {"biological_target": "T1, NR0B1-SNW1 interaction (Homo sapiens, UniProt P51843)", "T1 construct": "endogenous in cells; host or cells: NR0B1: H2122 cell lysate", "T1 sequence (P51843 1-470)": "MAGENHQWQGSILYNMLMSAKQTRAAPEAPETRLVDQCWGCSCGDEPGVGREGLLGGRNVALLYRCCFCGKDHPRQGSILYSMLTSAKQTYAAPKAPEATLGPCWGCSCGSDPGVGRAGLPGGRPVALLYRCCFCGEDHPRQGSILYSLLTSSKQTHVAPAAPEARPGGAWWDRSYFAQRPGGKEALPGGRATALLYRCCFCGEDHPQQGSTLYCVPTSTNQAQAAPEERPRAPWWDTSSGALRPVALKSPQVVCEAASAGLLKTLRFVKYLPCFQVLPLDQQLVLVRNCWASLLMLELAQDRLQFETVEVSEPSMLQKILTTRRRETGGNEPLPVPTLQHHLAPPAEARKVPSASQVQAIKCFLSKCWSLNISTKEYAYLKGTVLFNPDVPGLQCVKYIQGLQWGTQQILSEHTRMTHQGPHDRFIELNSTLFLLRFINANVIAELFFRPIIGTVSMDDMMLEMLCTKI", "assay": "In vitro binding assay: NR0B1 in H2122 lysate binding to immobilized FLAG-SNW1", "description": "H2122 clarified cell lysate (100 μL, 1 mg ml^−1) in IP-buffer were incubated with the indicated compounds or vehicle (DMSO) for 3 hours at 4° C. with rotation. Following treatment, 3 volumes of IP-buffer was added along with immobilized FLAG-SNW1 beads (30 μL, 50:50 slurry), which was incubated for an additional hour at 4° C. Beads were washed three times with IP-buffer supplemented with 500 mM NaCl. Immunoprecipitated proteins were resolved by SDS-PAGE and analyzed by immunoblotting. NR0B1 and HA-NR0B1 levels were determined by using the NR0B1 antibody (Cell Signaling). IC50 curves were determined using Prism 6 (Graphpad) software, with maximum and minimum values set at 100% NR0B1 bound 0% NR0B1 bound respectively.\nStatistical analysis was preformed using GraphPad Prism version 6 or 7 for Mac, GraphPad Software, La Jolla Calif. USA, or the R statistical programming language. Inhibition curves of the NR0B1-SNW1 interactions by NR0B1-ligand are fit as using log(inhibitor) vs % normalized remaining of NR0B1-SNW1 interaction and data points are plotted as the mean±SD (n=2-5 per group). NR0B1 half-life was calculated from a one-phase exponential decay curve plotted as mean±SD (4-10 per group). Statistical significance was defined as p<0.05 and determined by 2-tailed Student's t-test (FIG. 1I, FIG. 3B), two-way Anova with Bonferroni post-test analysis (FIG. 1J) or correlation analysis using Pearson product-moment correlation coefficient (FIG. 4B, FIG. 10G).\nNext, a chemical probe targeting C274 of NR0B1 was developed. Using an in vitro binding assay (FIG. 5B), an ˜80-member library of cysteine-reactive electrophilic compounds was screened at 50 μM for blockade of interactions between endogenous NR0B1 and recombinant FLAG-SNW1 in cell lysates (FIG. 5C). Among the hits (>50% blockade) were a series of N-disubstituted chloroacetamides (CAs), including BPK-26 (FIGS. 5D, 5E), that were selected for further investigation. […] Both BPK-26 and BPK-29 inhibited the NR0B1-SNW1 interaction with IC50 values between 10-20 μM in vitro (FIG. 11C)."}, "NR0B1": {"biological_target": "T2, NR0B1 (Homo sapiens, UniProt P51843)", "T2 construct": "H460 cells or H460 cells expressing luciferase in a 10 cm plate were incubated with indicated compounds; endogenous in cells; host or cells: H460 (NSCLC, KEAP1-mutant)", "T2 sequence (P51843 1-470)": "T1 sequence (P51843 1-470)", "assay": "isoTOP-ABPP of compound-treated H460 cells: NR0B1", "type": "cell-based", "details": "NSCLC cells, 40 μM, 3 h", "description": "For analysis of NR0B1 ligands or control compound reactivity, H460 cells or H460 cells expressing luciferase in a 10 cm plate were incubated with indicated compounds in serum/dye-free RPMI for 3 hours at 37° C. Cells were washed once ice-cold PBS and lysed in 1% Triton X-100 dissolved in PBS with protease inhibitors (Sigma) by sonication. Samples were clarified by centrifugation for 10 min at 16,000×g. Lysate was adjusted to 1.5 mg ml^−1 in 500 μL.\nSamples were labeled for 1 h at ambient temperature with 100 μM iodoacetamide alkyne (1, IA-alkyne, 5 μL of 10 mM stock in DMSO). Samples were conjugated by copper-catalyzed azide-alkyne cycloaddition (CuAAC) to isotopically labeled, TEV-cleavable tags (TEV-tags). Heavy CuAAC reaction mixtures was added to the DMSO-treated or shGFP control samples and light CuAAC reaction mixture was added to compound-treated or shNRF2 samples. The CuAAC reaction mixture consisted of TEV tags (light or heavy, 10 μL of 5 mM stocks in DMSO, final concentration=100 μM), 1 mM tris(2-carboxyethyl)phosphine hydrochloride (TCEP; fresh 50× stock in water, final concentration=1 mM), ligand (17× stock in DMSO:t-butanol 1:4, final concentration=100 μM) and 1 mM CuSO4 (50× stock in water, final concentration=1 mM). The samples were allowed to react for 1 h at which point the samples were centrifuged (16,000×g, 5 min, 4° C.). The resulting pellets were sonicated in ice-cold methanol (500 μL) and the resuspended light- and heavy-labeled samples were then combined pairwise and centrifuged (16,000×g, 5 min, 4° C.). The pellets were solubilized in PBS containing 1.2% SDS (1 mL) with sonication and heating (5 min, 95° C.) and any insoluble material was removed by an additional centrifugation step at ambient temperature (14,000×g, 1 min).\nFor each sample, 100 μL of streptavidin-agarose beads slurry (Fisher) was washed in 10 mL PBS and then resuspended in 6 mL PBS (final concentration 0.2% SDS in PBS). The SDS-solubilized proteins were added to the suspension of streptavidin-agarose beads and the bead mixture was rotated for 3 h at ambient temperature. After incubation, the beads were pelleted by centrifugation (1,400×g, 3 min) and were washed (2×10 mL PBS and 2×10 mL water).\nThe beads were transferred to eppendorftubes with 1 mL PBS, centrifuged (1,400×g, 3 min), and resuspended in PBS containing 6 M urea (500 μL). To this was added 10 mM DTT (25 μL of a 200 mM stock in water) and the beads were incubated at 65° C. for 15 mins. 20 mM iodoacetamide (25 μL of a 400 mM stock in water) was then added and allowed to react at 37° C. for 30 mins with shaking. The bead mixture was diluted with 900 μL PBS, pelleted by centrifugation (1,400×g, 3 min), and resuspended in PBS containing 2 M urea (200 μL). To this was added 1 mM CaCl2 (2 μL of a 200 mM stock in water) and trypsin (2 μg, Promega, sequencing grade) and the digestion was allowed to proceed overnight at 37° C. with shaking. The beads were separated from the digest with Micro Bio-Spin columns (Bio-Rad) by centrifugation (1,000×g, 1 min), washed (2×1 mL PBS and 2×1 mL water) and then transferred to fresh eppendorf tubes with 1 mL water. The washed beads were washed once further in 140 μL TEV buffer (50 mM Tris, pH 8, 0.5 mM EDTA, 1 mM DTT) and then resuspended in 140 μL TEV buffer. 5 μL TEV protease (80 μM) was added and the reactions were rotated overnight at 29° C. The TEV digest was separated from the beads with Micro Bio-Spin columns by centrifugation (1,400×g, 3 min) and the beads were washed once with water (100 μL). The samples were then acidified to a final concentration of 5% (v/v) formic acid and stored at −80° C. prior to analysis.\nSamples processed for multidimensional liquid chromatography tandem mass spectrometry (MudPIT) were pressure loaded onto a 250 μm (inner diameter) fused silica capillary columns packed with C18 resin (Aqua 5 μm, Phenomenex). […]"}, "KEAP1-mutant NSCLC cells": {"system": "KEAP1-mutant NSCLC cells", "assay": "Colony formation in soft agar, KEAP1-mutant NSCLC cells", "type": "cell-based, human", "details": "5 μM", "excerpt": "Based on its in situ activity (FIG. 6D and FIG. 12A, 12G) and selectivity (FIGS. 6A, 6B), BPK-29 was chosen for additional biological studies. […] Exogenous expression of […] the growth inhibition caused by BPK-29."}}, "data": [{"smiles": "C=CC(=O)Nc1cc(Nc2nccc(-c3cn(C)c4ccccc34)n2)c(OC)cc1N(C)CCN(C)C", "note": "[AZD9291]", "values": [{"measurement": "changes in cysteine reactivity", "setting": "[1]", "result": "neither of which caused substantive changes in cysteine reactivity"}]}, {"smiles": "COc1cc(CN(C(=O)CCl)c2cc(C(C)(C)C)ccc2OC)ccc1OCc1ccccc1", "note": "[BPK-27, N-(4-(benzyloxy)-3-methoxybenzyl)-N-(5-(tert-butyl)-2-methoxyphenyl)-2-chloroacetamide]", "values": [{"measurement": "inhibition of the NR0B1-SNW1 interaction", "setting": "NR0B1-SNW1 interaction; tested concentration range of 1-50 μM", "result": "did not inhibit"}, {"measurement": "engagement of C274 of NR0B1", "setting": "NR0B1", "result": "did not engage C274"}, {"measurement": "colony formation in soft agar", "setting": "KEAP1-mutant NSCLC cells", "result": "much less of an effect"}]}, {"smiles": "Cc1ccccc1C(=O)N1CCCC(N(Cc2ccccc2)C(=O)CCl)CC1", "note": "(stereo not drawn) [BPK-28, N-benzyl-2-chloro-N-(1-(2-methylbenzoyl)azepan-4-yl)acetamide]", "values": [{"measurement": "relative potency for inhibition of FLAG-SNW1 binding to NR0B1 (structure-activity relationship)", "setting": "NR0B1-SNW1 interaction; compounds at 50 μM", "result": "only modest reductions in potency"}]}, {"smiles": "CN[C@@H]1C[C@H]2O[C@@](C)([C@@H]1OC)n1c3ccccc3c3c4c(c5c6ccccc6n2c5c31)C(=O)NC4", "note": "[staurosporine]", "values": [{"measurement": "changes in cysteine reactivity", "setting": "[1]", "result": "neither of which caused substantive changes in cysteine reactivity"}]}]}
